Assay results from patent US20060063784A1, “Method of using substituted pyrazolo [1,5-a] pyrimidines” (priority 2004, published 2006).
pIC50: −log10 of the molar value. Values joined by “and” are separate entries in the source; they are usually repeats but may differ in a detail not shown here. Identical values can stand only once. Like-named read-outs stand apart in the source and are kept apart here.

Experiments:
[1] = system: 80S14 (p21-deficient) cells; test: Cytotoxicity assay using isogenic cell lines: IC50 in 80S14 (p21-deficient) cells, SRB; type: cell-based, human; settings: Homo sapiens, 120 h, SRB
Procedure, shortened: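 IC50 is the concentration halving proliferation relative to untreated controls, read from SRB absorbance (560 nm) after TCA fixation. Test agent dilutions (5 pM–50 μM or 170 pg/ml–10 μg/ml) were left on p21-deficient 80S14 cells (12,000/well, pre-incubated overnight) for 5 days at 37 °C.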

LoVo Colon cell line = test: Cytotoxicity assay using LoVo colon cell line, SRB; type: cell-based; settings: Homo sapiens, 96 h, 4 days incubation, SRB, read-out: Inhibition of LoVo
Procedure, shortened: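 Growth inhibition read by sulforhodamine B after 4-day compound exposure at 37 °C. Colon LoVo cells plated at 4000 per well in RPMI/10% FBS a day earlier; doses ranged 5 pM-20 μM or 170 pg/ml-10 μg/ml. IC50 is the concentration halving proliferation versus untreated wells.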

[2] = 80S14 (p21-deficient) cells, 5 days, class symbols, read-out: IC50 for 80S14

Row | SMILES | pIC50 [1, 2] | pIC50 (LoVo Colon cell line; Cellular activity in LoVo cell) | melting point | pIC50 ([1]; 80S14 p21-deficient cells, 5 days incubation, read-out: IC50 for 80SI4) | pIC50 (LoVo Colon cell line; LoVo colon cells)
1 | O=C(c1cccs1)c1cnn2c(-c3cccc(-c4ccn(CCN5CCCCC5)n4)c3)ccnc12 [Example 519, (7-{3-[1-(2-piperidin-1-ylethyl)-1H-pyrazol-3-yl]phenyl}pyrazolo[1,5-a]pyrimidin-3-yl)(thien-2-yl)methanone] | 5.00 to 6.00 | 6.00 to 7.00 | 62 °C |  | 
2 | O=C(Nc1cccc(-c2ccnc3c(C(=O)c4cccs4)cnn23)c1)c1ccccc1F [Example 358, 2-Fluoro-N-{3-[3-(thien-2-ylcarbonyl)pyrazolo[1,5-a]pyrimidin-7-yl]phenyl}benzamide] | > 6.00 | > 7.00 | 190 to 191 °C |  | 
3 | O=C(c1cccs1)c1cnn2c(-c3cccc(NC(=O)C4CC4)c3)ccnc12 [Example 249, N-[3-[3-(2-Thienylcarbonyl)pyrazolo[1,5-a]pyrimidin-7-yl]phenyl}-cyclopropanecarboxamide] | > 6.00 |  | 192 to 194 °C |  | 
4 | O=C(c1ccco1)c1cnn2c(-c3cccc(NC(=O)C4CC4)c3)ccnc12 [Example 235, N-[3-[3-(2-Furanylcarbonyl)-pyrazolo[1,5-a]pyrimidin-7-yl]phenyl}-cyclopropanecarboxamide] | > 6.00 |  | 227 to 230 °C |  | 
5 | O=C(Nc1cccc(-c2ccnc3c(C(=O)c4cccs4)cnn23)c1)c1ccncc1 [Example 291, N-{3-[3-(2-Thienylcarbonyl)pyrazolo[1,5-a]pyrimidin-7-yl]phenyl}isonicotinamide] | > 6.00 | > 7.00 | 212 to 215 °C |  | 
6 | O=C(c1ccco1)c1cnn2c(-c3cccc(-n4cccc4)c3)ccnc12 [Example 269, 2-Furanyl[7-[3-(1H-pyrrol-1-yl)phenyl]pyrazolo[1,5-a]pyrimidin-3-yl]-methanone] | 5.00 to 6.00 |  | 204 to 206 °C |  | 
7 | O=C(Nc1cccc(-c2ccnc3c(C(=O)c4cccs4)cnn23)c1)OCCCN1CCS(=O)(=O)CC1 [Example 420, 3-(1,1-Dioxidothiomorpholin-4-yl)propyl 3-[3-(thien-2-ylcarbonyl)pyrazolo[1,5-a]pyrimidin-7-yl]phenylcarbamate] | > 6.00 | 6.00 to 7.00 | 148 to 159 °C |  | 
8 | O=C(c1cccs1)c1cnn2c(Cl)ccnc12 [Example 390, (7-Chloropyrazolo[1,5-a]pyrimidin-3-yl)(thien-2-yl)methanone] | 5.00 to 6.00 | 4.70 to 6.00 | 148 to 150 °C |  | 
9 | CC(C)CC(=O)Nc1cccc(-c2ccnc3c(-c4cccc(N)c4)cnn23)c1 [Example 464, N-{3-[3-(3-Aminophenyl)pyrazolo[1,5-a]pyrimidin-7-yl]phenyl}-3-methylbutanamide] | 4.30 to 5.00 | 4.70 to 6.00 | 173 to 175 °C |  | 
10 | Nc1cccc(-c2ccnc3c(C(=O)c4cccs4)cnn23)c1 [Example 262, [7-(3-Aminophenyl)pyrazolo[1,5-a]pyrimidin-3-yl]-2-thienyl-methanone] | 4.30 to 5.00 |  | 183 to 184 °C and 183 to 185 °C |  | 
11 | COc1ccccc1/C=C/CNc1cccc(-c2ccnc3c(C(=O)c4cccs4)cnn23)c1 [Example 395, [7-(3-{[(2E)-3-(2-Methoxyphenyl)prop-2-enyl]amino}phenyl)pyrazolo[1,5-a]pyrimidin-3-yl](thien-2-yl)methanone] | 4.30 to 5.00 | 4.70 to 6.00 | 128 to 131 °C |  | 
12 | Cc1cn(-c2cccc(-c3ccnc4c(C(=O)c5cccs5)cnn34)c2)cn1 [Example 247, [7-[3-(4-Methyl-1H-imidazol-1-yl)phenyl]-pyrazolo[1,5-a]pyrimidin-3-yl]-2-thienyl-methanone] | 5.00 to 6.00 | 6.00 to 7.00 | 232 to 234 °C |  | 
13 | CC(C)CCNc1cccc(-c2ccnc3c(C(=O)c4cccs4)cnn23)c1 [Example 350, {7-[3-(Isopentylamino)phenyl]pyrazolo[1,5-a]pyrimidin-3-yl}(thien-2-yl)methanone] | > 6.00 | > 7.00 | 75 to 77 °C |  | 
14 | CC(C)NC(=NC#N)Nc1cccc(-c2ccnc3c(C(=O)c4cccs4)cnn23)c1 [Example 414, N″-Cyano-N-isopropyl-N′-{3-[3-(thien-2-ylcarbonyl)pyrazolo[1,5-a]pyrimidin-7-yl]phenyl}guanidine] | > 6.00 |  | 240 to 241 °C |  | 
15 | O=C(c1cccs1)c1cnn2c(-c3cccs3)ccnc12 [Example 224, 2-Thienyl[7-(2-thienyl)pyrazolo[1,5-a]-pyrimidin-3-yl}-methanone] | 5.00 to 6.00 |  | 193 to 195 °C |  | 
16 | CCCCNC(=O)Nc1cccc(-c2ccnc3c(C(=O)c4cccs4)cnn23)c1 [Example 8, N-butyl-N′-{3-[3-(thien-2-ylcarbonyl)pyrazolo[1,5-a]pyrimidin-7-yl]phenyl}urea] |  |  | 158 to 160 °C | > 6.00 | > 7.00
17 | O=C(c1cccs1)c1cnn2c(-c3cccc(-n4ccnc4)c3)ccnc12 [Example 244, [7-[3-(1H-imidazol-1-yl)phenyl]pyrazolo-[1,5-a]pyrimidin-3-yl]-2-thienyl-methanone] | 5.00 to 6.00 |  | 242 to 244 °C |  | 
18 | O=C(c1cccs1)c1cnn2c(-c3cccc(-c4cc[nH]n4)c3)ccnc12 [Example 514, {7-[3-(1H-Pyrazol-3-yl)phenyl]pyrazolo[1,5-a]pyrimidin-3-yl}(thien-2-yl)methanone] | > 6.00 | 6.00 to 7.00 | 129 °C |  | 
